Results taken from ChEMBL document CHEMBL1147528, “(S)-N-[1-(4-cyclopropylmethyl-3,4-dihydro-2H-benzo[1,4]oxazin-6-yl)-ethyl]-3-(2-fluoro-phenyl)-acrylamide is a potent and efficacious KCNQ2 opener which inhibits induced hyperexcitability of rat hippocampal neurons” (Bioorg Med Chem Lett, 2004).

How the values were obtained:
[1] = target: Potassium voltage-gated channel subfamily KQT member 2 (Mus musculus) (UniProt Q9Z351); assay: Efficacy for mKCNQ2 expressed in HEK293 cells relative to reference compound; assay type: functional, cell-based
Potassium voltage-gated channel subfamily KQT member 2 (Mus musculus), sequence (Q9Z351 whole entry): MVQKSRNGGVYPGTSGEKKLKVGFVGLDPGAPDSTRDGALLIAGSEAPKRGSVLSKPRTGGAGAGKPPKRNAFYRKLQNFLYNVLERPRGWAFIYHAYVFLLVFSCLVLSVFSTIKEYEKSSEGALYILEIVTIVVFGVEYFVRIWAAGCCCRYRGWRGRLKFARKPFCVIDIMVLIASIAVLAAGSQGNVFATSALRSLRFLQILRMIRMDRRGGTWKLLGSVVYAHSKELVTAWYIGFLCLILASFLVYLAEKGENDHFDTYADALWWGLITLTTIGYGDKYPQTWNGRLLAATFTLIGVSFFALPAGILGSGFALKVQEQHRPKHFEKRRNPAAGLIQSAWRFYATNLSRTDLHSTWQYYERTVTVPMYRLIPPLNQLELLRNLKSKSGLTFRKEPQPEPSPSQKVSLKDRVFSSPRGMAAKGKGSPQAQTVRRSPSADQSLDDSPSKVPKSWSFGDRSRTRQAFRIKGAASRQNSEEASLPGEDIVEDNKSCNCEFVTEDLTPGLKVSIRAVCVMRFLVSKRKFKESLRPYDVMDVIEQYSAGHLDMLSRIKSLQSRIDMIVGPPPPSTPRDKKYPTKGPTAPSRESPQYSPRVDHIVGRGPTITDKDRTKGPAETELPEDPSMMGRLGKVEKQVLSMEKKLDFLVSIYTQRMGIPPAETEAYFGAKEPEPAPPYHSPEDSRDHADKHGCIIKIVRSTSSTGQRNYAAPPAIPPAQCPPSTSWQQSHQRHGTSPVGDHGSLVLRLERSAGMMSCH

[2] = target: Potassium voltage-gated channel subfamily KQT member 2 (Mus musculus, UniProt Q9Z351); assay: Whole-cell patch-clamp on recombinant mouse KCNQ2 channels expressed in HEK 293 cells at -40 mV; assay type: functional, cell-based, HEK293
Potassium voltage-gated channel subfamily KQT member 2, sequence (Q9Z351 whole entry): as above

Row | Structure (SMILES) | E/Eref [1] | EC50 [2] [nM]
1 | C[C@H](NC(=O)/C=C/c1ccccc1)c1cccc(N2CCOCC2)c1 | 1.4 | 3280
2 | C[C@H](NC(=O)/C=C/c1ccccc1F)c1ccc2c(c1)NCCO2 | 1.2 | 2000
3 | CCN1CCOc2ccc([C@H](C)NC(=O)/C=C/c3ccccc3F)cc21 | 2.1 | 200
4 | C[C@H](NC(=O)/C=C/c1ccccc1F)c1ccc2c(c1)N(C)CCO2 | 1.8 | 940
5 | CCOC(=O)Nc1ccc(NCc2ccc(F)cc2)cc1N [EZOGABINE] | 1.6 | 1300
6 | C[C@H](NC(=O)/C=C/c1ccccc1F)c1ccc2c(c1)N(CC1CC1)CCO2 | 1.83 | 60
